Measurements published in patent publication US20250011289A1, “1H-BENZO[B]AZEPIN-2(3H)-ONE COMPOUNDS, COMPOSITIONS AND METHODS OF TREATING CANCER” (Chengdu Anticancer Bioscience, Ltd., priority 2021, published 2025).
Where two headings read alike, the source gives them in different places.

Experiments:
RPE-Neo or RPE-MYC cells = experiment: MTT assay of cellular proliferation; format: cell-based; conditions: compounds at 20 nM to 20 μM; read-out: Min. Effective conc. for Proliferative arrest (>50%)
Summary of the method: (§1)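 RPE-Neo, RPE-MYC or RPE-MYC EGFP-Histone 2B cells exposed to compound at 20 nM to 20 μM, 18-24 h after plating. Mitotic arrest or DNA-content change imaged at 24, 48 or 72 h; proliferation by MTT. Values binned A (1 nM–1.0 μM), B (>1.00–10.0 μM), C (>10.0–30.0 μM), D (>30.0–<1000 μM).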

[1] = system: RPE-Neo or RPE-MYC or RPE-MYC expressing an EGFP-Histone 2B fusion protein; experiment: Phenotypic screening assay (arrest in mitosis or change in DNA content, IN-Cell Analyzer); format: cell-based; conditions: compounds at 20 nM to 20 μM, analysed 24, 48 or 72 hours after initiation of treatment
Summary of the method: as §1

[2] = read-out: Min. Effective conc. for Along with Cell Death
[3] = read-out: Min. Effective conc. for Mitotic Arrest (>5%)
[4] = read-out: Min. Effective conc. for Polyploidy (≥5%)

Measured: minimal effective concentration

Cc1ccc(CN2C(=O)CC(c3nnc(C4CC4)o3)=C(Br)c3ccc(F)cc32)cc1F [Compound 20-7, 5-bromo-4-(5-cyclopropyl-1,3,4-oxadiazol-2-yl)-8-fluoro-1-(3-fluoro-4-methylbenzyl)-1,3-dihydro-2H-benzo[b]azepin-2-one]
0.001 to 1 µM: RPE-Neo or RPE-MYC cells | [1]; [2] | [1]; [3] | [1]; [4]

[2H]C([2H])(c1ccc(C)c(F)c1)N1C(=O)CC(c2nnc(C3CC3)o2)=C(Br)c2ccccc21 [Compound 20-27, 5-bromo-4-(5-cyclopropyl-1,3,4-oxadiazol-2-yl)-1-((3-fluoro-4 methylphenyl)methyl-d2)-1,3-dihydro-2H-benzo[b]azepin-2-one]
0.001 to 1 µM: RPE-Neo or RPE-MYC cells | [1]; [2] | [1]; [3] | [1]; [4]

CC1=C(c2nnc(C3CC3)o2)CC(=O)N(Cc2ccc(C)c(F)c2)c2ccccc21 [Compound 20-30]
0.001 to 1 µM: RPE-Neo or RPE-MYC cells | [1]; [2] | [1]; [3] | [1]; [4]

Cc1nnc(C2=C(Br)c3ccc(F)cc3N(Cc3ccc(C)c(F)c3)C(=O)C2)o1 [Compound 20-8, 5-bromo-8-fluoro-1-(3-fluoro-4-methylbenzyl)-4-(5-methyl-1,3,4-oxadiazol-2-yl)-1,3-dihydro-2H-benzo[b]azepin-2-one]
0.001 to 1 µM: RPE-Neo or RPE-MYC cells | [1]; [2] | [1]; [3] | [1]; [4]

Cc1ccc(CN2C(=O)CC(c3nnc(C4CC4)o3)=C(Br)c3cc(F)ccc32)cc1F [Compound 20-17, 5-bromo-4-(5-cyclopropyl-1,3,4-oxadiazol-2-yl)-7-fluoro-1-(3-fluoro-4-methylbenzyl)-1,3-dihydro-2H-benzo[b]azepin-2-one]
0.001 to 1 µM: RPE-Neo or RPE-MYC cells | [1]; [2] | [1]; [3] | [1]; [4]

Cc1ccc(CN2C(=O)CC(c3nnc(C4CC4)o3)=C(Br)c3ccc(C(F)(F)F)cc32)cc1F [Compound 20-14, 5-bromo-4-(5-cyclopropyl-1,3,4-oxadiazol-2-yl)-1-(3-fluoro-4-methylbenzyl)-8-(trifluoromethyl)-1,3-dihydro-2H-benzo[b]azepin-2-one]
0.001 to 1 µM: RPE-Neo or RPE-MYC cells | [1]; [2] | [1]; [3] | [1]; [4]

Cc1ccc(CN2C(=O)CC(c3cnco3)=C(Cl)c3ccc(C#N)cc32)cc1F [Compound 8-4, 5-chloro-1-(3-fluoro-4-methylbenzyl)-4-(oxazol-5-yl)-2-oxo-2,3-dihydro-1H-benzo[b]azepine-8-carbonitrile]
0.001 to 1 µM: RPE-Neo or RPE-MYC cells | [1]; [2] | [1]; [3] | [1]; [4]

C#CC1=C(c2nnc(C3CC3)o2)CC(=O)N(Cc2ccc(C)c(F)c2)c2ccccc21 [Compound 20-32, 4-(5-cyclopropyl-1,3,4-oxadiazol-2-yl)-5-ethynyl-1-(3-fluoro-4-methylbenzyl)-1,3-dihydro-2H-benzo[b]azepin-2-one]
0.001 to 1 µM: RPE-Neo or RPE-MYC cells | [1]; [2] | [1]; [3] | [1]; [4]

COc1ccc(C(=O)N2CCC(c3nnc(C4CC4)o3)=C(Br)c3ccccc32)cc1F [Compound 34-2, (5-bromo-4-(5-cyclopropyl-1,3,4-oxadiazol-2-yl)-2,3-dihydro-1H-benzo[b]azepin-1-yl)(3-fluoro-4-methoxyphenyl)methanone]
0.001 to 1 µM: RPE-Neo or RPE-MYC cells | [1]; [2] | [1]; [3] | [1]; [4]

Cc1ccc(CN2C(=S)CC(c3nnc(C4CC4)o3)=C(Br)c3ccccc32)cc1F [Compound 24-1, 5-bromo-4-(5-cyclopropyl-1,3,4-oxadiazol-2-yl)-1-(3-fluoro-4-methylbenzyl)-1,3-dihydro-2H-benzo[b]azepine-2-thione]
0.001 to 1 µM: RPE-Neo or RPE-MYC cells | [1]; [2] | [1]; [3] | [1]; [4]

COCCOc1ccc2c(c1)N(Cc1ccc(C)c(F)c1)C(=O)CC(c1cnco1)=C2Cl [Compound 8-9]
0.001 to 1 µM: RPE-Neo or RPE-MYC cells | [1]; [2] | [1]; [3] | [1]; [4]
